Holding throughout (format): functional
Assay [1] relates to Homo sapiens. The assay is described as follows: Anti-inflammatory activity in COPD patient assessed as change in forced expiratory volume in 1 second at 90 mg, po bid for 24 weeks (-3.6%).
Assay [2] deals with Homo sapiens. Nature of the assay: Antirheumatoid arthritic activity in patient assessed as disease activity score at 500 mg, po bid for 8 weeks (reference value: 6.4 +/- 0.73).
Assay [3] deals with Homo sapiens. Nature of the assay: Antirheumatoid arthritic activity in patient assessed as disease activity score at 500 mg, po bid for 8 weeks in presence of diclofenac sodium (reference value: 6.44 +/- 0.51).
In assay [4] the test system is Homo sapiens. The assay is described as follows: Antirheumatoid arthritic activity in patient assessed as visual analogue scale at 500 mg, po bid for 8 weeks (reference value: 68.57 +/- 17.14).
Assay [5] relates to Homo sapiens. Nature of the assay: Antirheumatoid arthritic activity in patient assessed as visual analogue scale at 500 mg, po bid for 8 weeks in presence of diclofenac sodium (reference value: 77.25 +/- 9.65).
Assay [6] relates to Homo sapiens. The assay is described as follows: Anti-inflammatory activity in COPD patient assessed as change in BMI at 90 mg, po bid for 24 weeks (reference value: -0.7%).
The subject of assay [7] is Homo sapiens. The assay is described as follows: Anti-inflammatory activity in COPD patient assessed as change in SBP at 90 mg, po bid for 24 weeks (reference value: 1.4%).
For assay [8], the system named is Homo sapiens. Nature of the assay: Anti-inflammatory activity in COPD patient assessed as change in DBP at 90 mg, po bid for 24 weeks (reference value: 2.9%).
Assay [9] deals with Homo sapiens. The assay is described as follows: Anti-inflammatory activity in COPD patient assessed as change in HbA1c level at 90 mg, po bid for 24 weeks relative to placebo treated control.
For assay [10], the system named is Homo sapiens. Nature of the assay: Anti-inflammatory activity in COPD patient assessed as change in blood sugar level at 90 mg, po bid for 24 weeks (14.5%).
Assay [11] concerns Homo sapiens. Nature of the assay: Anti-inflammatory activity in COPD patient assessed as change in triglyceride level at 90 mg, po bid for 24 weeks (14.5%).
Assay [12] concerns Homo sapiens. The assay is described as follows: Anti-inflammatory activity in COPD patient assessed as change in LDL-C level at 90 mg, po bid for 24 weeks (11.4%).
In assay [13] the test system is Homo sapiens. Nature of the assay: Anti-inflammatory activity in COPD patient assessed as change in HDL-C level at 90 mg, po bid for 24 weeks (2%).
Assay [14] has as its system Homo sapiens. Nature of the assay: Anti-inflammatory activity in COPD patient assessed as change in uric acid level at 90 mg, po bid for 24 weeks (2.3%).
Assay [15] deals with Homo sapiens. The assay is described as follows: Anti-inflammatory activity in COPD patient assessed as change in gammaGTP level at 90 mg, po bid for 24 weeks (-1.2%).
In assay [16] the test system is Homo sapiens. Nature of the assay: Anti-inflammatory activity in COPD patient assessed as change in creatinine level at 90 mg, po bid for 24 weeks (1.4%).
Assay [17] concerns Homo sapiens. Nature of the assay: Anti-inflammatory activity in COPD patient assessed as change in C-reactive protein level at 90 mg, po bid for 24 weeks (11.1%).
The subject of assay [18] is Homo sapiens. Nature of the assay: Anti-inflammatory activity in COPD patient assessed as change in SAA-LDL level at 90 mg, po bid for 24 weeks (10.8%).
Assay [19] concerns Homo sapiens. The assay is described as follows: Anti-inflammatory activity in COPD patient assessed as change in AT-LDL level at 90 mg, po bid for 24 weeks (14.8%).
Assay [20] concerns Homo sapiens. Nature of the assay: Antirheumatoid arthritic activity in patient assessed as disease activity score at 50 mg, po bid for 8 weeks (reference value: 6.72 +/- 0.87).
Assay [21] has as its system Homo sapiens. Nature of the assay: Antirheumatoid arthritic activity in patient assessed as visual analogue scale at 50 mg, po bid for 8 weeks (reference value: 78.25 +/- 11.25).

Two compounds from ChEMBL document CHEMBL3994669, “Curcumin May (Not) Defy Science” (2017) can be followed below.

Molecules are shown by their SMILES.

Turning to `COc1cc(/C=C/C(=O)CC(=O)/C=C/c2ccc(O)c(OC)c2)ccc1O` [CURCUMIN], the Activity was -1.9% in [1]; 3.55 in [2]; 3.58 in [3]; 27.5 in [4]; 34.29 in assay [5]; 0.9% in assay [6]. Also, the Activity in assay [7] is given as -1.3%; in assay [8], 3.5%; in assay [9] it was 0.4%; in [10], 5.8%; in assay [11] it was 9.2%; in assay [12], 4.6%. Also, the Activity is given as -2.8% in assay [13]; 2.4% in [14]; -5.7% in [15]; 2.9% in assay [16]; -12.5% in [17]; -2% in assay [18]. Further, the Activity in assay [19] was -1.6%.
For `O=C([O-])Cc1ccccc1Nc1c(Cl)cccc1Cl.[Na+]` [DICLOFENAC SODIUM], the Activity in assay [20] is recorded as 3.89; in [21] it was 39.17.
